# Test results taken from patent publication US10854312B2, “Selective peptide antagonists” (BIONIZ, LLC, priority 2013, dated 2020).
# Entries after “also recorded” stand apart in the source; their conditions may differ. No end group written: not given here.
# How the values were obtained:
# [1] = tested on: human IL-21; experiment: PT-18 h21Rα survival assay (apoptosis by Annexin V staining), IL-21; format: cell-based; details: hIL-21Rα-transfected PT-18 cells, 1 nM human IL-21, 5 μM BNZ132-1, PE-Annexin V flow cytometry
# Procedure: FIG. 6A-FIG. 6E presents inhibitory spectrum of BNZ132-1 over γc- and non-γc-cytokines. […] Neutralizing antibodies against each cytokine (R & D systems, 5 μg ml^−1) were included as controls. After 20 h, the cells were pulsed with WST-1 (Clontech) and OD450 of each well was measured after 6 h. A 19-mer scrambled peptide was used as a negative control at 5 μM. The experiments were conducted in triplicate (applies to all experiments in FIG. 6A-FIG. 6E). The result represents one of at least three independent experiments (applies to all experiments in FIG. 6A-FIG. 6E). […] In PT-18 proliferation assay, PT-18β or PT-18h21Rα cells were withdrawn of mouse IL-3 for 12 h before the experiment. Cells were then incubated with 1 nM of mouse IL-4, mouse IL-9, or mouse IL-21 in the presence or absence of the indicated doses (μM) of BNZ132-1. Neutralizing antibodies to each cytokine (5 μg ml^−1, except for anti-mouse IL-21 polyclonal antibody which was used at 15 μg ml−1) and a scrambled control peptide (5 μM) were included as negative controls. WST-1 assay was conducted as described above. […] In PT-18 h21Rα survival assay, PT-18h21Rα cells are described in the text. […] Both parental and hIL-21Rα positive PT-18 cells were washed and incubated without IL-3 for 12 h before the assay. […] The Y-axis represents the cpm (count per minute) values measured by a β-counter. […]
# [2] = tested on: mouse IL-9 signal; experiment: Western blot of phosphorylation downstream of IL-9 in PT-18 cells; format: cell-based; details: 1 nM mouse IL-9, excess dose of BNZ132-1, 15 min
# Procedure: PT-18 cells32 were fasted of IL-3 for 12 h prior to stimulation. Cells were stimulated with 1 nM mouse IL-4 or mouse IL-9 in the presence or absence of excess dose of BNZ132-1 ([…]) for 15 min and then cellular proteins were extracted. Phosphorylation of the indicated proteins was detected using phosphor-specific antibodies (Cell signaling), followed by ECL. IL-4 is the only γc-cytokine that induces the phosphorylation of STAT6. Note that only IL-4, but not IL-9, induced the tyrosine-phosphorylation of STAT6. […] Lanes: 1. no stimulation, 2. IL-4, 3. IL-4+BNZ132-1, 4. IL-9, 5. IL-9+BNZ132-1
sequence,measurement,setting,value
IKEFLQRFIHIVQSIINTS [BNZ132-1],inhibition of IL-21-mediated protection from apoptotic death after IL-3 withdrawal,[1],did not counteract the effect of IL-21; also recorded: not inhibited; also recorded: no inhibition of IL-21
same,"inhibition of IL-9 signal (phosphorylation, STAT5)",[2],comprehensively inhibited
